From patent US20200281908A1, “MEANS FOR TREATING DEMENTIA OF VARIOUS ETIOLOGY” (priority 2016, published 2020) come the findings set out here.

Experiment [1] deals with streptozotocin-induced rat model of AD. In words: CPAR test on a streptozotocin-induced rat model of AD. Type of experiment: in vivo. As to conditions: for Latent period of going into the dark chamber, Recalling, 24 hours later / Latent period of going into the dark chamber, Recalling, 7 days later / Latent period of going into the dark chamber, Recalling, 14 days later / Latent period of going into the dark chamber, Training LP1 / Number of animals with amnesia that went into the dark chamber during the CPAR recalling test/Number of animals in the group, 24 hours later / Number of animals with amnesia that went into the dark chamber during the CPAR recalling test/Number of animals in the group, 7 days later / Number of animals with amnesia that went into the dark chamber during the CPAR recalling test/Number of animals in the group, 14 days later / percentage of rats with reflex impairment (went into the dark chamber), 24 hours later / percentage of rats with reflex impairment (went into the dark chamber), 7 days later / percentage of rats with reflex impairment (went into the dark chamber), 14 days later: rats, n = 12; for Latent period of going into the dark chamber, Recalling, 24 hours later / Latent period of going into the dark chamber, Recalling, 7 days later / Latent period of going into the dark chamber, Recalling, 14 days later / Latent period of going into the dark chamber, Training LP1: M ± m. The protocol:
Example 2. The aim of the study is to assess the specific pharmacological activity of the liposomal formulation of methyl 4-[2-oxo-1,2-bis[[2-(4-pyridinyl)ethyl]amino]ethyl]benzoate succinate in comparison with the pharmaceutical substance of this compound and memantine on memory loss when modelling AD using neurotoxin streptozotocin in rats.
In this study, the modelling of AD was performed using the procedure recommended in the Methodological Recommendations for the preclinical study of nootropic drugs.
According to the procedure, AD modeling was performed by introducing streptozotocin toxin into the cerebral ventricles of the rat.
The surgical neurotoxin injection into the brain was performed in anaesthetized animals (with chloral hydrate at a dose of 200 mg/kg, ip) in a stereotaxic apparatus.
First, the cranial trepanation was performed in animals according to the stereotaxic coordinates; AP (1.0), L (1.5-2). Streptozotocin at a dose of 3 mg/kg was injected bilaterally into the lateral ventricles of the brain according to the stereotaxic coordinates: AP (1.0): L (1.5-2): H (3.0). The toxin was injected at a rate of 0.1 μl per minute; the injected solution volume was 5 μl in each ventricle
The cranial trepanation of the control (sham-operated) animals was performed according to the stereotaxic coordinates: AP (1.0): L (1.5-2), and distilled water was then injected bilaterally into the lateral ventricles of the brain also according to the stereotaxic coordinates, in the same volume and at the same rate as the studied drugs.
1 hour after surgery, the intragastric administration of substances to rats started, which continued for 14 days.
The test pharmaceutical substance (Prototype) and the current liposomal formulation of this compound were administered to rats in 2 doses of 0.25 mg/kg and 1 mg/kg. Memantine at a dose of 1 mg/kg. Distilled water was administered to control animals.
The day after the last injection of substances, procedures that allow testing the training and memory of animals started.
Evaluation of the antiamnesic effect of PAM-12 in comparison with memantine was performed using the CPAR method. A detailed description of the CPAR method is given in Example 1. […] Memory loss was determined in the terms of the reduction of the latent time of the CPAR and increase in the number of animals that went into the dark chamber during reflex recalling test, compared to that of the control
The animals were randomly divided into 8 arms.
1. Intact control—distilled water, intragastrically (i.g.), 14 days-12 rats.
2. Control—sham-operated animals—distilled water, i.g. 14 days-12 rats.
3. Active control—injection of streptozotocin (STZ) 3 mg/kg into the cerebral ventricles+distilled water, i.g., 14 days-12 rats
4. Prototype 0.25 mg/kg, i.g., 14 days: the first injection 1 hour after the injection of STZ into the cerebral ventricles and then daily for 14 days-12 rats.
5. Prototype 1.0 mg/kg, i.g., 14 days: the first injection 1 hour after the injection of STZ into the cerebral ventricles and then daily for 14 days-12 rats.
6. Current liposomal formulation 0.25 mg/kg, i.g., 14 days: the first injection 1 hour after the injection of STZ into the cerebral ventricles and then daily for 14 days-12 rats
7. Current liposomal formulation 1.0 mg/kg, i.g., 14 days: the first injection 1 hour after the injection of STZ into the cerebral ventricles and then daily for 14 days-12 rats.
8. Memantine 1 mg/kg. i.g., 14 days: the first injection 1 hour after the injection of STZ into the cerebral ventricles and then daily for 14 days-12 rats.

Experiment [2] concerns CPAR amnesia caused by MES in rats. In words: CPAR (conditioned passive avoidance reflex) amnesia caused by maximal electroshock seizure (MES). Format: in vivo, rat. Particulars: n = 10; for CPAR recalling test 24 hours later: Latent time of the reflex / CPAR training Latent time of the reflex: M ± m. An excerpt: Example 1. The aim of the study is to assess the effect of the liposomal formulation of methyl 4-[2-oxo-1,2-bis[[2-(4-pyridinyl)ethyl]amino]ethyl]benzoate succinate on conditioned passive avoidance reflex (CPAR) amnesia caused by maximal electroshock seizure (MES) in comparison with the pharmaceutical substance of this compound and piracetam in rats.
CPAR is a basic method for studying the effects of drugs affecting memory in any manner whatsoever. When exposed to CPAR, it is possible to identify both memory improvement and its deterioration (amnesic effect). CPAR is based on the inborn hole exploratory behaviour of rodents—the tendency to hide in a limited darkened space.
The apparatus for studying the action of drugs is a dark chamber with an electrode floor. The dark chamber is connected through a square guillotine door with a hinged platform. The hinged platform is illuminated by a 60 watt lamp. The dark chamber is located oil the laboratory table, and the platform hangs above the floor at a height of 800 mm.
First, CPAR was developed in rats. Rats were placed on a lighted platform in from of the dark chamber of the apparatus with their tail toward the inlet and recorded latent time of the reflex. Then, in the dark chamber, the rat received a single 10-second pain stimulation with an electric current (0.3 mA) through the electrode floor (training)
Amnesia was invoked by MES Electric stimulus (250 V, 115-120 mA, 50 Hz, for 0.1 sec) for obtaining MES was applied to the rat through special cornal (ocular) electrodes, previously soaked in saline MES was performed directly after CPAR training.
Experimental groups. The animals were divided into 7 arms: • Arm I: control without amnesia (saline). • Arm II: control with amnesia (MES) • Arm III: Prototype 0.25 mg/kg+MES. • Arm IV: Prototype 1.0 mg/kg+MES. • Arm V: Current liposomal formulation 0.25 mg/kg+MES. • Arm VI: Current liposomal formulation 1.0 mg/kg+MES. • Arm VII: Piracetam 400 mg/kg+MES.
The prototype and the current liposomal composition were administered intragastrically. Piracetam was administered once intraperitoneally 40 minutes before the experiment

Setting [3] is: 1.0 mg/kg i.g. + STZ (memantine printed p.o.).
[4] abbreviates: 400 mg/kg once intraperitoneally + MES.
Where [5] appears, read: 0.25 mg/kg once intragastrically + MES.
The mark [6] stands for this setting: 1 mg/kg once intragastrically + MES.

As for `CC12CC3CC(C)(C1)CC(N)(C3)C2` [Memantine], the “antiamnesic effect in rats of the streptozotocin-induced AD model” value in experiment [1] (1 mg/kg) is recorded as “pronounced antiamnesic effect”. In addition, in experiment [1] (1.0 mg/kg i.g. 14 days + STZ), the “Latent period of going into the dark chamber, Recalling, 24 hours later” value (“Latent period … 24 hours later” for short) was found to be 166.4 ± 13.6 s; the “Latent period of going into the dark chamber, Recalling, 7 days later” value (“Latent period … 7 days later” for short) stood at 166.4 ± 13.6 s; the “Latent period of going into the dark chamber, Recalling, 14 days later” value (shortened to “Latent period … 14 days later”) was determined as 143.5 ± 19.2 s; the “Latent period of going into the dark chamber, Training LP1” value (“Latent period … Training LP1” for short) is 20.4 ± 3.4 s. For the same molecule, in experiment [1] (setting [3]), the “Number of animals with amnesia that went into the dark chamber during the CPAR recalling test/Number of animals in the group, 24 hours later” value is reported as 1/12; the “Number of animals with amnesia that went into the dark chamber during the CPAR recalling test/Number of animals in the group, 7 days later” value was 1/12; the “Number of animals with amnesia that went into the dark chamber during the CPAR recalling test/Number of animals in the group, 14 days later” value is given as 3/12; the “percentage of rats with reflex impairment (went into the dark chamber), 24 hours later” value (“percentage of rats … 24 hours later” for short) amounted to 8.3%. Further, in experiment [1] (setting [3]), the “percentage of rats with reflex impairment (went into the dark chamber), 7 days later” value (from here on “percentage of rats … 7 days later”) was 8.3% and the “percentage of rats with reflex impairment (went into the dark chamber), 14 days later” value (“percentage of rats … 14 days later” below) is 25%. The “number of rats who forgot about the pain stimulation, times less compared to Active Control group” value (“number … compared to Active Control group” below) in experiment [1] (1 mg/kg, 24 hours after the CPAR training) is recorded as 5 times. For the same molecule, the “number … compared to Active Control group” value in experiment [1] (1 mg/kg, 7 days after the CPAR training) was 7 times. Further, in experiment [1] (1 mg/kg, 7 days later), the “latent period longer than in the Active control group” value is recorded as 1.5 times. In experiment [1] (1 mg/kg, 14 days after the CPAR training), the “number … compared to Active Control group” value is recorded as 2.7 times. Besides, the “latent period longer than in the Active control group” value in experiment [1] (1 mg/kg, 14 days later) was determined as 1.9 times.

`NC(=O)CN1CCCC1=O` [Piracetam]: in experiment [2] (setting [4]), the “CPAR recalling test 24 hours later: Latent time of the reflex” value came out at 97.17 ± 21.43 s; the “CPAR training Latent time of the reflex” value stood at 19.11 ± 5.28 s; the “CPAR recalling test 24 hours later: Number of animals that did not go into the dark chamber, %” value was determined as 50%.

Turning to `COC(=O)c1ccc(C(NCCc2ccncc2)C(=O)NCCc2ccncc2)cc1.O=C(O)CCC(=O)O` (stereo not shown) [Prototype, methyl 4-[2-oxo-1,2-bis[[2-(4-pyridinyl)ethyl]amino]ethyl]benzoate succinate], in experiment [1] (0.25 mg/kg i.g. 14 days + STZ), the “Latent period … 24 hours later” value was determined as 133.1 ± 13.3 s; the “Latent period … 7 days later” value amounted to 121.3 ± 17.8 s; the “Latent period … 14 days later” value is 102.8 ± 19.4 s; the “Latent period … Training LP1” value was determined as 24.3 ± 5.1 s. For the same molecule, in experiment [1] (0.25 mg/kg i.g. + STZ), the “Number of animals with amnesia that went into the dark chamber during the CPAR recalling test/Number of animals in the group, 24 hours later” value is 4/12; the “Number of animals with amnesia that went into the dark chamber during the CPAR recalling test/Number of animals in the group, 7 days later” value is listed as 5/12; the “Number of animals with amnesia that went into the dark chamber during the CPAR recalling test/Number of animals in the group, 14 days later” value is reported as 6/12; the “percentage of rats … 24 hours later” value worked out at 33.3%. In experiment [1] (0.25 mg/kg i.g. + STZ), the “percentage of rats … 7 days later” value is 41.7% and the “percentage of rats … 14 days later” value is on record as 50%. In experiment [1] (1.0 mg/kg i.g. 14 days + STZ), the “Latent period … 24 hours later” value turned out to be 147.7 ± 16.2 s; the “Latent period … 7 days later” value is 132.3 ± 2.8 s; the “Latent period … 14 days later” value amounted to 124.9 ± 20.3 s; the “Latent period … Training LP1” value turned out to be 30.1 ± 12.1 s. In addition, in experiment [1] (setting [3]), the “Number of animals with amnesia that went into the dark chamber during the CPAR recalling test/Number of animals in the group, 24 hours later” value is reported as 3/12; the “Number of animals with amnesia that went into the dark chamber during the CPAR recalling test/Number of animals in the group, 7 days later” value was 4/12; the “Number of animals with amnesia that went into the dark chamber during the CPAR recalling test/Number of animals in the group, 14 days later” value is 5/12; the “percentage of rats … 24 hours later” value was found to be 25%. Besides, in experiment [1] (setting [3]), the “percentage of rats … 7 days later” value is listed as 33.3% and the “percentage of rats … 14 days later” value was determined as 41.7%. Further, in experiment [2] (setting [5]), the “CPAR recalling test 24 hours later: Latent time of the reflex” value amounted to 107.86 ± 15.12 s and the “CPAR training Latent time of the reflex” value is 20.38 ± 4.38 s. Moreover, in experiment [2] (setting [6]), the “CPAR recalling test 24 hours later: Latent time of the reflex” value worked out at 118.13 ± 17.26 s and the “CPAR training Latent time of the reflex” value worked out at 13.29 ± 2.78 s.
